Earlier results, collected in US12482537B2, “System of predicting sensitivity of Klebsiella against MeropeneM and method” (priority 2023, dated 2025).

System: carbapenem resistant Klebsiella pneumoniae
Details: isolates from 2014 to 2017 (252/403)

C[C@@H](O)[C@H]1C(=O)N2C(C(=O)O)=C(S[C@@H]3CN[C@H](C(=O)N(C)C)C3)[C@H](C)[C@H]12 [Meropenem]
resistance rate against meropenem: 62.5%
